Legend:
[1] = test system: BH murine tumor archive (HER2-dependent murine breast tumors); test: Tumor response to rapamycin in subcutaneously transplanted BH archive murine breast tumors; assay type: in vivo, mouse; conditions: out of 66 tumors; 0.1 mg/kg daily, intraperitoneal injection
Description: (§1) A genetically diverse population of more than 100 murine breast tumors (BH archive) was used to identify tumors that are sensitive to a drug of interest (responders) and tumors that are resistant to the same drug of interest (non-responders). The BH archive was established by in vivo propagation and cryopreservation of primary tumor material from more than 100 spontaneous murine breast tumors derived from engineered chimeric mice that develop HER2-dependent, inducible spontaneous breast tumors.
The BH archive of more than 100 tumors was produced essentially as follows. Primary tumor cells were isolated from the chimeric animals by physical disruption of the tumors using cell strainers. Typically 1×10^5 cells were mixed with Matrigel (50:50 by vol.) and injected subcutaneously into female NCr nu/nu mice. When these tumors grew to approximately 500 mm3, which typically required 2 to 4 weeks, they were collected for one further round of in vivo propagation, after which tumor material was cryopreserved in liquid nitrogen. […]
Tumors from the BH murine tumor archive were tested for sensitivity to treatment with rapamycin (also known as sirolimus, or RAPAMUNE®). […] Tumors were measured twice per week by a caliper, and tumor volume was calculated.

[2] = test system: BH murine tumor archive (HER2-dependent murine breast tumors); test: Tumor response to tivozanib in subcutaneously transplanted BH archive murine breast tumors; assay type: in vivo, mouse
Description: as §1
The BH archive of more than 100 tumors was produced essentially as follows. Primary tumor cells were isolated from the chimeric animals by physical disruption of the tumors using cell strainers. Typically 1×10^5 cells were mixed with Matrigel (50:50 by vol.) and injected subcutaneously into female NCr nu/nu mice. When these tumors grew to approximately 500 mm3, which typically required 2 to 4 weeks, they were collected for one further round of in vivo propagation, after which tumor material was cryopreserved in liquid nitrogen. To characterize the propagated and archived tumors, 1×10^5 cells from each individual tumor line were thawed and injected subcutaneously in BALB/c nude mice. When the tumors reached a mean size of 500 to 800 mm3, animals were sacrificed and tumors were surgically removed for further analysis.
Tumors in the BH murine tumor archive were tested for sensitivity to treatment with tivozanib. Evaluation of tumor response to this drug treatment was performed essentially as follows. Subcutaneously transplanted tumors were established by injecting physically disrupted tumor cells (mixed with Matrigel) into 6 week-old female BALB/c nude mice. When the tumors reached approximately 100-200 mm3, 20 tumor-bearing mice were randomized into two groups. Group 1 received vehicle. Group 2 received tivozanib at 5 mg/kg daily by oral gavage. Tumors were measured twice per week by a caliper, and tumor volume was calculated.
The variation in response was expected, because the mouse model tumors had been propagated from spontaneously arising tumors, and were therefore expected to contain differing sets of secondary de novo mutations that contributed to tumorogenesis. […] Tivozanib-sensitive tumors and tivozanib-resistant tumors were identified (classified) on the basis of tumor growth inhibition, histopathology and IHC (CD31).

[3] = out of 25 tumors, 5 mg/kg tivozanib, classified by tumor growth inhibition, histopathology and IHC (CD31)

| SMILES | number of rapamycin-resistant tumors (50% tumor growth inhibition or less) [1] | number of rapamycin-sensitive tumors (more than 50% tumor growth inhibition) [1] | tumor progression (by caliper measurement) in tivozanib-sensitive tumors ([2]; 5 mg/kg daily by oral gavage, BALB/c nude mice, tivozanib-sensitive tumors) | tumor killing in tivozanib-sensitive tumors ([2]; 5 mg/kg, tivozanib-sensitive tumors, histopathology) | number of tumors actually resistant [2, 3] | number of tumors actually sensitive [2, 3] |
| --- | --- | --- | --- | --- | --- | --- |
| CO[C@H]1C[C@@H]2CC[C@@H](C)[C@@](O)(O2)C(=O)C(=O)N2CCCC[C@H]2C(=O)O[C@H]([C@H](C)C[C@@H]2CC[C@@H](O)[C@H](OC)C2)CC(=O)[C@H](C)/C=C(\C)[C@@H](O)[C@@H](OC)C(=O)[C@H](C)C[C@H](C)/C=C/C=C/C=C/1C [rapamycin] | 25 | 41 |  |  |  |  |
| COc1cc2nccc(Oc3ccc(NC(=O)Nc4cc(C)on4)c(Cl)c3)c2cc1OC [tivozanib] |  |  | no tumor progression | close to complete tumor killing, except for the peripheries | 16 | 9 |

From patent publication US20130165343A1, “IDENTIFICATION OF MULTIGENE BIOMARKERS” (AVEO Pharmaceuticals, Inc., priority 2011, published 2013)
